Measurements as given in ChEMBL document CHEMBL5352392, “Design, synthesis, and biological evaluation of novel dual inhibitors of heat shock protein 90/mammalian target of rapamycin (Hsp90/mTOR) against bladder cancer cells” (Eur J Med Chem, 2022).
Activity calls are given as the source filed them. The calls are words filed in the database; no cut-off is given here.

Columns and labels:
SW780 [1] = assay: Downregulation of p62 level in human SW780 cells at 0.2 to 0.5 uM by Western blot analysis; format: functional, cell-based; conditions: dose 0.2-0.5 µM
SW780 [2] = assay: Antiproliferative activity against human SW780 cells assessed as cell survival at 0.5 uM measured after 72 hrs by CCK8 assay relative to control; format: functional; conditions: read-out: Activity
J82 [3] = assay: Antitumor activity against human J82 cells xenografted in nude Balb/c mouse assessed as tumor growth inhibition at 30 mg/kg, po administered everyday for 17 days; format: functional, organism-based; conditions: time 17.0 day
SW780 [4] = assay: Antiproliferative activity against human SW780 cells assessed as inhibition of cell proliferation at 1 uM by CCK8 assay relative to control; format: functional
J82 [5] = assay: Antitumor activity against human J82 cells xenografted in nude Balb/c mouse assessed as decrease in mTOR phosphorylation level at 30 mg/kg, po administered everyday for 17 days by IHC analysis; format: functional, organism-based; conditions: time 17.0 day
SW780 [6] = assay: Induction of apoptosis in human SW780 cells assessed as necrotic cells at 0.5 uM incubated for 24 hrs by Annexin V-FITC/PI staining based flow cytometry (reference value: 92.3 %); format: functional
SW780 [7] = assay: Downregulation of CDK4 level in human SW780 cells at 0.2 to 0.5 uM by Western blot analysis; format: functional, cell-based; conditions: dose 0.2-0.5 µM
SW780 [8] = assay: Induction of apoptosis in human SW780 cells assessed as late apoptotic cells at 0.2 uM incubated for 24 hrs by Annexin V-FITC/PI staining based flow cytometry (reference value: 2.30 %); format: functional
SW780 [9] = assay: Upregulation of intracellular cathepsin B activity in human SW780 cells; format: functional, cell-based
SW780 [10] = assay: Induction of autophagy in human SW780 cells transfected with GFP-LC3 assessed as formation of autophagosomes incubated for 6 hrs in presence of 3-MA by laser scanning confocal microscopic analysis; format: functional, cell-based
SW780 [11] = assay: Upregulation of intracellular cathepsin B activity in human SW780 cells in presence of Baf-A1; format: functional, cell-based
[12] = Toxicity in nude Balb/c mouse xenografted with human J82 cells assessed as body weight reduction at 30 mg/kg, po administered everyday for 17 days; format: organism-based; conditions: in vivo, 408 h, time 17 day
SW780 [13] = assay: Induction of apoptosis in human SW780 cells assessed as necrotic cells at 0.2 uM incubated for 24 hrs by Annexin V-FITC/PI staining based flow cytometry (reference value: 92.3 %); format: functional
J82 [14] = assay: Antiproliferative activity against human J82 cells assessed as inhibition of cell proliferation at 1 uM by CCK8 assay relative to control; format: functional
SW780 [15] = assay: Downregulation of phosphorylated AKT level in human SW780 cells at 0.2 to 0.5 uM by Western blot analysis; format: functional, cell-based; conditions: dose 0.2-0.5 µM
SW780 [16] = assay: Downregulation of c-Raf level in human SW780 cells at 0.2 to 0.5 uM by Western blot analysis; format: functional, cell-based; conditions: dose 0.2-0.5 µM
Heat shock protein HSP90 [17] = target: T1, Heat shock protein HSP90 (Homo sapiens, UniProt P07900+P08238); assay: Inhibition of Hsp90 (unknown origin) by TR-FRET assay; format: protein assay
SW780 [18] = assay: Induction of apoptosis in human SW780 cells assessed as early apoptotic cells at 0.5 uM incubated for 24 hrs by Annexin V-FITC/PI staining based flow cytometry (reference value: 1.43 %); format: functional
SW780 [19] = assay: Upregulation of intracellular cathepsin B activity in human SW780 cells in presence of 3-MA; format: functional, cell-based
Heat shock protein HSP90 [20] = target: T1, Heat shock protein HSP90; conditions: dose 100.0 nM
Description: Inhibition of Hsp90 (unknown origin) at 100 nM by TR-FRET assay relative to control

SW780 [21] = assay: Induction of apoptosis in human SW780 cells assessed as early apoptotic cells at 0.2 uM incubated for 24 hrs by Annexin V-FITC/PI staining based flow cytometry (reference value: 1.43 %); format: functional
SW780 [22] = assay: Downregulation of phosphorylated mTOR level in human SW780 cells at 0.2 to 0.5 uM by Western blot analysis; format: functional, cell-based; conditions: dose 0.2-0.5 µM
SW780 [23] = assay: Induction of autophagy in human SW780 cells assessed as formation of autophagic vacuoles in cytoplasm by TEM analysis; format: functional, cell-based
SW780 [24] = assay: Induction of apoptosis in human SW780 cells assessed as late apoptotic cells at 0.5 uM incubated for 24 hrs by Annexin V-FITC/PI staining based flow cytometry (reference value: 2.30 %); format: functional
SW780 [25] = assay: Downregulation of CDC2 level in human SW780 cells at 0.2 to 0.5 uM by Western blot analysis; format: functional, cell-based; conditions: dose 0.2-0.5 µM
T-24 [26] = assay: Antiproliferative activity against human T24 cells assessed as inhibition of cell proliferation at 1 uM by CCK8 assay relative to control; format: functional
SW780 [27] = assay: Antiproliferative activity against human SW780 cells assessed as inhibition of cell proliferation by CCK8 assay; format: functional, cell-based
SW780 [28] = assay: Upregulation of LC3-II level in human SW780 cells at 0.2 to 0.5 uM by Western blot analysis; format: functional, cell-based; conditions: dose 0.2-0.5 µM
SW780 [29] = assay: Induction of autophagy in human SW780 cells transfected with GFP-LC3 assessed as formation of autophagosomes at 0.5 uM incubated for 24 hrs by laser scanning confocal microscopic analysis; format: functional, cell-based
SW780 [30] = assay: Upregulation of Hsp70 level in human SW780 cells by Western blot analysis; format: functional, cell-based; conditions: dose 0.2-0.5 µM
J82 [31] = assay: Antitumor activity against human J82 cells xenografted in nude Balb/c mouse assessed as […] at 30 mg/kg, po administered everyday for 17 days by IHC analysis; format: functional, organism-based; conditions: time 17.0 day
[32] = target: T2, Serine/threonine-protein kinase mTOR (Homo sapiens, UniProt P42345); assay: Inhibition of mTOR (unknown origin) at 100 nM by kinase profiling assay relative to control
J82 [33] = assay: Antiproliferative activity against human J82 cells assessed as inhibition of cell proliferation by CCK8 assay; format: functional, cell-based
SW780 [34] = assay: Induction of autophagy in human SW780 cells transfected with GFP-LC3 assessed as formation of autophagosomes incubated for 6 hrs in presence of Baf-A1 by laser scanning confocal microscopic analysis; format: functional, cell-based
[35] = target: T2, Serine/threonine-protein kinase mTOR; assay: Inhibition of mTOR (unknown origin) by kinase profiling assay
[36] = target: Phosphatidylinositol 4,5-bisphosphate 3-kinase catalytic subunit alpha isoform (Homo sapiens, UniProt P42336); assay: Inhibition of PI3Kalpha (unknown origin) by kinase profiling assay
Sequence of Phosphatidylinositol 4,5-bisphosphate 3-kinase catalytic subunit alpha isoform (P42336 whole entry, canonical isoform): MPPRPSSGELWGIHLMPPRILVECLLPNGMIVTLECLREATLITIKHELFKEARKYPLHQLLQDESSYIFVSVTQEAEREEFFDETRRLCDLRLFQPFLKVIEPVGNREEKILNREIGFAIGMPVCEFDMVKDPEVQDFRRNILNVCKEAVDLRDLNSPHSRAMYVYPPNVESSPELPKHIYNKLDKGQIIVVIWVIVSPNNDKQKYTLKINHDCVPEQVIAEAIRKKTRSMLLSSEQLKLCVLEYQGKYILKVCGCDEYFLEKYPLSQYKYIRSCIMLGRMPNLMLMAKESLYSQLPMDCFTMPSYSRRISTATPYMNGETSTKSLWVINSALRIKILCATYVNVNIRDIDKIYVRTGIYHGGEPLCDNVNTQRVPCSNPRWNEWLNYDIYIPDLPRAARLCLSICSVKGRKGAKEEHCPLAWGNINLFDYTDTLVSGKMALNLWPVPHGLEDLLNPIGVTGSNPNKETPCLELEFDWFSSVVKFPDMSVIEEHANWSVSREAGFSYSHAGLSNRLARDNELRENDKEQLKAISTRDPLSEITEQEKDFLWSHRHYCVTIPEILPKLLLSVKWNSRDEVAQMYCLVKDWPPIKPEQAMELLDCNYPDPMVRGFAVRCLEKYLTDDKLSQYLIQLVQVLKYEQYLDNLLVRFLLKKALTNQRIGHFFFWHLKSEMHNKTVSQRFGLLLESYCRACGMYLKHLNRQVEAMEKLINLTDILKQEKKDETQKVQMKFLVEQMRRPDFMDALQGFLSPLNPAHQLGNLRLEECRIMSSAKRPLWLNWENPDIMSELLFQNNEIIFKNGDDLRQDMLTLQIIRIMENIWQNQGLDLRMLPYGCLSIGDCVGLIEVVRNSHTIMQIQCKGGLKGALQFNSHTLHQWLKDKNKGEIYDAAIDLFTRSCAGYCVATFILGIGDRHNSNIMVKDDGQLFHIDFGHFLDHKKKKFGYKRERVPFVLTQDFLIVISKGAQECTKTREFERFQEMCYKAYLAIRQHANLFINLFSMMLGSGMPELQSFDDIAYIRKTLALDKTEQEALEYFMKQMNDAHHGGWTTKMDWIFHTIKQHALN

SW780 [37] = assay: Induction of apoptosis in human SW780 cells assessed as viable cells at 0.2 uM incubated for 24 hrs by Annexin V-FITC/PI staining based flow cytometry (reference value: 92.3 %); format: functional; conditions: read-out: Activity
SW780 [38] = assay: Upregulation of cleaved caspase-3 level in human SW780 cells at 0.2 to 0.5 uM by Western blot analysis; format: functional, cell-based; conditions: dose 0.2-0.5 µM
SW780 [39] = assay: Induction of apoptosis in human SW780 cells assessed as viable cells at 0.5 uM incubated for 24 hrs by Annexin V-FITC/PI staining based flow cytometry (reference value: 92.3 %); format: functional; conditions: read-out: Activity
J82 [40] = assay: Antitumor activity against human J82 cells xenografted in nude Balb/c mouse assessed as increase in LC3-II level at 30 mg/kg, po administered everyday for 17 days by IHC analysis; format: functional, organism-based; conditions: time 17.0 day
SW780 [41] = assay: Upregulation of cytochrome C level in human SW780 cells at 0.2 to 0.5 uM by Western blot analysis; format: functional, cell-based; conditions: dose 0.2-0.5 µM
T-24 [42] = assay: Antiproliferative activity against human T24 cells assessed as inhibition of cell proliferation by CCK8 assay; format: functional, cell-based

Structure (SMILES): CC(C)c1cc(C(=O)N2CCc3c(sc4nc(-c5ccc(NC(=O)Nc6ccc(F)c(Cl)c6)cc5)nc(N5CCOCC5)c34)C2)c(O)cc1O
- Activity (SW780 [1]): Active
- viability at 0.5 µM (SW780 [2]): < 40%
- inhibition (J82 [3]): Active
- inhibition at 1 µM (SW780 [4]): 93.8%
- Activity (J82 [5]): Active
- Activity (SW780 [6]): 2.31%
- Activity (SW780 [7]): Active
- Activity (SW780 [8]): 3.29%
- Activity (SW780 [9]): Active
- Activity (SW780 [10]): inactive
- Activity (SW780 [11]): inactive
- Activity [12]: Non-Toxic
- Activity (SW780 [13]): 4.38%
- inhibition at 1 µM (J82 [14]): 79.3%
- Activity (SW780 [15]): Active
- Activity (SW780 [16]): Active
- IC50 (Heat shock protein HSP90 [17]): 69 nM
- Activity (SW780 [18]): 9.23%
- Activity (SW780 [19]): inactive
- inhibition (Heat shock protein HSP90 [20]): 83.3%
- Activity (SW780 [21]): 4.77%
- Activity (SW780 [22]): Active
- Activity (SW780 [23]): Active
- Activity (SW780 [24]): 5.01%
- Activity (SW780 [25]): Active
- inhibition at 1 µM (T-24 [26]): 91.7%
- IC50 (SW780 [27]): 160 nM
- Activity (SW780 [28]): Active
- Activity (SW780 [29]): Active
- Activity (SW780 [30]): Dose-Dependent Effect
- Activity (J82 [31]): Active
- inhibition [32]: 83.1%
- IC50 (J82 [33]): 360 nM
- Activity (SW780 [34]): Active
- IC50 [35]: 29 nM
- IC50 [36]: 4980 nM
- viability at 0.2 µM (SW780 [37]): 87.6%
- Activity (SW780 [38]): Active
- viability at 0.5 µM (SW780 [39]): 83.5%
- Activity (J82 [40]): Active
- Activity (SW780 [41]): Active
- IC50 (T-24 [42]): 410 nM

Structure (SMILES): CC(C)c1cc(C(=O)N2CCc3c(sc4nc(-c5ccc(NC(=O)Nc6cc(Cl)cc(Cl)c6)cc5)nc(N5CCOCC5)c34)C2)c(O)cc1O
- inhibition at 1 µM (SW780 [4]): 77.8%
- inhibition at 1 µM (J82 [14]): 69.1%
- IC50 (Heat shock protein HSP90 [17]): 365 nM
- inhibition (Heat shock protein HSP90 [20]): 68.3%
- inhibition at 1 µM (T-24 [26]): 67%
- IC50 (SW780 [27]): 690 nM
- inhibition [32]: 73.5%
- IC50 (J82 [33]): 1590 nM
- IC50 [35]: 106 nM
- IC50 [36]: 5630 nM
- IC50 (T-24 [42]): 550 nM

Structure (SMILES): CC(C)c1cc(C(=O)N2CCc3c(sc4nc(-c5ccc(NC(=O)Nc6cccc(Cl)c6)cc5)nc(N5CCOCC5)c34)C2)c(O)cc1O
- inhibition at 1 µM (SW780 [4]): 89.8%
- inhibition at 1 µM (J82 [14]): 84.7%
- IC50 (Heat shock protein HSP90 [17]): 147 nM
- inhibition (Heat shock protein HSP90 [20]): 72.7%
- inhibition at 1 µM (T-24 [26]): 65%
- IC50 (SW780 [27]): 740 nM
- inhibition [32]: 75.2%
- IC50 (J82 [33]): 760 nM
- IC50 [35]: 82 nM
- IC50 [36]: 3600 nM
- IC50 (T-24 [42]): 1720 nM

Structure (SMILES): CC(C)c1cc(C(=O)N2CCc3c(sc4nc(-c5ccc(NC(=O)Nc6cccc(C(F)(F)F)c6)cc5)nc(N5CCOCC5)c34)C2)c(O)cc1O
- inhibition at 1 µM (SW780 [4]): 65.6%
- inhibition at 1 µM (J82 [14]): 69.1%
- IC50 (Heat shock protein HSP90 [17]): 126 nM
- inhibition (Heat shock protein HSP90 [20]): 73.8%
- inhibition at 1 µM (T-24 [26]): 82.5%
- IC50 (SW780 [27]): 660 nM
- inhibition [32]: 66.3%
- IC50 (J82 [33]): 2760 nM
- IC50 [35]: 218 nM
- IC50 [36]: 2450 nM
- IC50 (T-24 [42]): 940 nM

Structure (SMILES): CC(C)c1cc(C(=O)N2CCc3c(sc4nc(N5CCOC[C@@H]5C)nc(N5CCOC[C@@H]5C)c34)C2)c(O)cc1O
- inhibition at 1 µM (SW780 [4]): 79.9%
- inhibition at 1 µM (J82 [14]): 52.8%
- IC50 (Heat shock protein HSP90 [17]): 476 nM
- inhibition (Heat shock protein HSP90 [20]): 56.6%
- inhibition at 1 µM (T-24 [26]): 55.4%
- IC50 (SW780 [27]): 370 nM
- inhibition [32]: 75.4%
- IC50 (J82 [33]): 780 nM
- IC50 [35]: 73 nM
- IC50 [36]: > 10000 nM
- IC50 (T-24 [42]): 1680 nM
